According to US6107068A, “Coenzyme A disulfide reductase, and inhibitors thereof useful as antimicrobial agents” (The University of British Columbia, priority 1997, dated 2000):

What was measured:
[1] = biological target: S. aureus coenzyme A disulfide reductase (Staphylococcus aureus, UniProt O52582); assay: Steady state kinetic analysis of NADPH oxidation by disulfide substrates catalyzed by purified CoADR (340 nm)
Procedure: (§1) DTNB assays were performed in Tris-HCl (20 mM), pH 8.0, containing EDTA (1 mM) (TE buffer), and were monitored at 412 nm for the nitrobenzothiolate anion (e^412 =15,600 M^-1 cm^-1 (Ellman (1959) Arch. Biochem. Biophys. 82:70-77)). […] For kinetic analysis of purified CoADR activity, the oxidation of NADPH was measured as the decrease in absorbance at 340 nm (De^340 =6,220 M^-1 cm^-1), and was carried out in Tris-HCl (50 mM), pH 7.8, containing NaCl (50 mM).
(§2) The specificity of CoADR for these substrates and various other biological disulfides were quantitated kinetically. Kinetic measurements were performed in a 1 cm path-length quartz cuvette maintained at 37° C. […] Enzyme and NADPH were combined in buffer and equilibrated to 37° C., and the reaction was initialized by the addition of the disulfide substrate. The activity of CoADR was monitored at 340 nm as the decrease in absorbance resulting from the oxidation of NADPH. All kinetic measurements were recorded in the linear range, and at least seven substrate concentrations were used for each analysis. Kinetic constants were calculated from a linear least squares fit of the initial velocity data to the Michaelis-Menton equation using the program HyperO.

[2] = background statement, Newton et al. (1996); cited from earlier work
[3] = Cu2+ catalyzed oxidation of thiols (remaining thiol by DTNB); assay type: physicochemical; conditions: thiol 1 mM, CuCl2 1 mM, Tris-HCl pH 7.5, ambient temperature
Procedure: To determine the relative stability of CoA to heavy metal-catalyzed oxidation, the rate of Cu^2+ catalyzed oxidation of cysteine, GSH, and CoA were compared. Each sample (2 ml) of thiol (1 mM) in Tris-HCl buffer (20 mM), pH 7.5, containing CuCl2 (1 mM) was incubated at ambient temperature. Thiol determination was then carried out at various times by adding aliquots ([…]) from each sample to a solution ([…]) of DTNB (1 mM) in Tris-HCl buffer (20 mM), pH 8.0, containing EDTA (1 mM). The absorbance of these samples at 412 nm was measured and the concentration of remaining thiol determined.

[4] = biological target: Coenzyme A disulfide reductase (CoADR) in extracts of Staphylococcus aureus (Staphylococcus aureus, UniProt O52582); assay: Pyridine nucleotide and disulfide dependent reduction of DTNB by dialyzed S. aureus extracts; assay type: biochemical
Chain of Coenzyme A disulfide reductase (CoADR) in extracts of Staphylococcus aureus (O52582 2-438): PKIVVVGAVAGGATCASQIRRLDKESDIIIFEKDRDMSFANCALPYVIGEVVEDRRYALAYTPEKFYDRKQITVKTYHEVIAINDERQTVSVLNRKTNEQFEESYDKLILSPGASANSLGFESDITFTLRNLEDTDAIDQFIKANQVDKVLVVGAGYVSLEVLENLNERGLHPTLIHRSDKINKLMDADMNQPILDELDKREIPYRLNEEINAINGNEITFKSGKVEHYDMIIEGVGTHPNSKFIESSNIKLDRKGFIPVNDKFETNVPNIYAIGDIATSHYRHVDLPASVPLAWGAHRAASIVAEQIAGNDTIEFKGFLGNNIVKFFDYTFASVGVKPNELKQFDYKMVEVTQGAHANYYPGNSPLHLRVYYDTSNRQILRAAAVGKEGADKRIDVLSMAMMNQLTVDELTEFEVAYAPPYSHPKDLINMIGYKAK
Procedure: Concentrations of […] (and dephosphoCoA disulfide) were measured spectrophotometrically at 340 nm (e^340 =6220 M^-1 cm^-1), 260 nm (e^260 =33,600 M^-1 cm^-1), and 450 nm (e^450 =11,000 M^-1 cm^-1), respectively. DTNB assays were performed in Tris-HCl (20 mM), pH 8.0, containing EDTA (1 mM) (TE buffer), and were monitored at 412 nm for the nitrobenzothiolate anion (e^412 =15,600 M^-1 cm^-1 (Ellman (1959) Arch. Biochem. Biophys. 82:70-77)). Protein concentrations were determined by reaction with bicinchoninic acid and copper sulfate (Deutscher (1990) in Meth. Enzymol., vol. 182. San Diego: Academic Press, Inc.). During purification, CoADR activity in crude extracts was monitored by the NADPH and CoA disulfide dependent reduction of DTNB. DTNB and all substrates were added at 0.1 mM. For kinetic analysis of purified CoADR activity, the oxidation of NADPH was measured as the decrease in absorbance at 340 nm (De^340 =6,220 M^-1 cm^-1), and was carried out in Tris-HCl (50 mM), pH 7.8, containing NaCl (50 mM).
In order to identify the enzyme responsible for maintaining CoA in its reduced form, S. aureus extracts were analyzed for a disulfide reductase specific for CoA disulfide. An overnight culture (10 ml) of R8325-4 was centrifuged (5,000×g, 10 min), resuspended in 3 ml of TE buffer containing lysostaphin (5 mg/ml), and incubated at 37° C. for 30 min until the suspension became viscous. Glass beads (1 g) and PMSF (to 1 mM) were added, the mixture was vortexed for two minutes and then centrifuged (14,000×g, 10 min) to remove the insoluble cellular debris. The resulting viscous lysate was dialyzed exhaustively (3,600 Mr cutoff) against TE buffer. The dialysate was then assayed for the pyridine nucleotide (1 mM) and CoA disulfide (1 mM) dependent reduction of DTNB (1 mM).

[5] = test system: CC(C)(COP(=O)(O)O)[C@@H](O)C(=O)NCCC(=O)NCCSSCCNC(=O)CCNC(=O)[C@H](O)C(C)(C)COP(=O)(O)O; assay: purified protein, by the assay type; conditions: other: disulfide substrate varied, NADPH maintained at 200 mM, 37° C., nd = no activity detected
Procedure: as §1, §2

[6] = test system: CC(C)(COP(=O)(O)OP(=O)(O)OC[C@H]1O[C@@H](n2cnc3c(N)ncnc32)[C@H](O)[C@@H]1O)[C@@H](O)C(=O)NCCC(=O)NCCSSCCNC(=O)CCNC(=O)[C@H](O)C(C)(C)COP(=O)(O)OP(=O)(O)OC[C@H]1O[C@@H](n2cnc3c(N)ncnc32)[C@H](O)[C@@H]1O; assay: purified protein, by the assay type; conditions: other: disulfide substrate varied, NADPH maintained at 200 mM, 37° C., nd = no activity detected
Procedure: as §1, §2

[7] = test system: CC(C)(COP(=O)(O)OP(=O)(O)OC[C@H]1O[C@@H](n2cnc3c(N)ncnc32)[C@H](O)[C@@H]1OP(=O)(O)O)[C@@H](O)C(=O)NCCC(=O)NCCSSCCNC(=O)CCNC(=O)[C@H](O)C(C)(C)COP(=O)(O)OP(=O)(O)OC[C@H]1O[C@@H](n2cnc3c(N)ncnc32)[C@H](O)[C@@H]1OP(=O)(O)O; assay: purified protein, by the assay type; conditions: other: disulfide substrate varied, NADPH maintained at 200 mM, 37° C., nd = no activity detected
Procedure: as §1, §2

[8] = test system: CC(C)(COP(=O)(O)OP(=O)(O)OC[C@H]1O[C@@H](n2cnc3c(N)ncnc32)[C@H](O)[C@@H]1OP(=O)(O)O)[C@@H](O)C(=O)NCCC(=O)NCCSSC[C@H](NC(=O)CC[C@H](N)C(=O)O)C(=O)NCC(=O)O; assay: purified protein, by the assay type; conditions: other: disulfide substrate varied, NADPH maintained at 200 mM, 37° C., nd = no activity detected
Procedure: as §1, §2

[9] = test system: NC(=O)C1=CN([C@@H]2O[C@H](COP(=O)(O)OP(=O)(O)OC[C@H]3O[C@@H](n4cnc5c(N)ncnc54)[C@H](OP(=O)(O)O)[C@@H]3O)[C@@H](O)[C@H]2O)C=CC1; assay: purified protein, by the assay type
Procedure: as §1, §2

[10] = biological target: the molecule itself; assay: gel exclusion chromatography of the native enzyme (approximately 85 kD) compared with SDS-PAGE of the subunit (~50 kD)
[11] = other: NADPH varied, CoA disulfide maintained at 120 mM, 37° C.

Chain of S. aureus coenzyme A disulfide reductase (O52582 2-438): as above

CC(C)(COP(=O)(O)OP(=O)(O)OC[C@H]1O[C@@H](n2cnc3c(N)ncnc32)[C@H](O)[C@@H]1O)[C@@H](O)C(=O)NCCC(=O)NCCSSCCNC(=O)CCNC(=O)[C@H](O)C(C)(C)COP(=O)(O)OP(=O)(O)OC[C@H]1O[C@@H](n2cnc3c(N)ncnc32)[C@H](O)[C@@H]1O [3'-dephospho-CoA disulfide]
change in kcat as compared to CoA disulfide [1]: no detectable change | increase in Km as compared to CoA disulfide [1]: 10 fold

CC(C)(COP(=O)(O)O)[C@@H](O)C(=O)NCCC(=O)NCCSSCCNC(=O)CCNC(=O)[C@H](O)C(C)(C)COP(=O)(O)O [4,4'-diphospho-pantethine]
kcat lower than for 3'-dephospho-CoA disulfide [1]: 2-3 fold

CC(C)(COP(=O)(O)OP(=O)(O)OC[C@H]1O[C@@H](n2cnc3c(N)ncnc32)[C@H](O)[C@@H]1OP(=O)(O)O)[C@@H](O)C(=O)NCCC(=O)NCCS [CoA, Coenzyme A]
stability to heavy metal-catalyzed auto-oxidation [2]: slightly more stable than glutathione

N[C@@H](CCC(=O)N[C@@H](CS)C(=O)NCC(=O)O)C(=O)O [GSH, g-glutamyl-cysteinyl-glycine]
stability to copper-catalyzed autooxidation [3]: much more stable than cysteine

NC(=O)C1=CN([C@@H]2O[C@H](COP(=O)(O)OP(=O)(O)OC[C@H]3O[C@@H](n4cnc5c(N)ncnc54)[C@H](O)[C@@H]3O)[C@@H](O)[C@H]2O)C=CC1 [NADH]
use in the CoA disulfide dependent reduction of DTNB [4]: cannot be used

N[C@@H](CSSC[C@H](N)C(=O)O)C(=O)O [cystine]
function in the NADPH-dependent reduction of DTNB [4]: did not function | turnover / activity with CoADR [1]: No activity could be detected

CC(C)(CO)[C@@H](O)C(=O)NCCC(=O)NCCSSCCNC(=O)CCNC(=O)[C@H](O)C(C)(C)CO [pantethine]
function in the NADPH-dependent reduction of DTNB [4]: did not function | turnover / activity with CoADR [1]: not turned over

S. aureus coenzyme A disulfide reductase (Staphylococcus aureus subsp. aureus NCTC 8325)
Km [5]: 80 µM | Km [6]: 140 µM | Km [7]: 11 µM | Km [8]: 1100 µM | Km [9, 11]: 1.6 µM | kcat [9, 11]: 17 ± 1 s⁻¹ | Km ([9]; other: at saturating CoA disulfide, 37.0 °C): 2 µM

B1: Coenzyme A disulfide reductase (CoADR) from Staphylococcus aureus (enzyme)
chain: PKIVVVGAVAGGATCASQIRRLDKESDIIIFEKDRDMSFANCALPYVIGEVVEDRRYALAYTPEKFYDRKQITVKTYHEVIAINDERQTVSVLNRKTNEQFEESYDKLILSPGASANSLGFESDITFTLRNLEDTDAIDQFIKANQVDKVLVVGAGYVSLEVLENLNERGLHPTLINRSDKINKLMDADMNQPILDELDKREIPYRLNEEINAINGNEITFKSGKVEHYDMIIEGVGTHPNSKFIESSNIKLDRKGFIPVNDKFETNVPNIYAIGDIATSHYRHVDLPASVPLAWGAHRAASIVAEQIAGNDTIEFKGFLGNNIVKFFDYTFASVGVKPNELKQFDYKMVEVTQGAHANYYPGNSPLHLRVYYDTSNRQILRAAAVGKEGADKRIDVLSMAMMNQLTVDELTEFEVAYAPPYSHPKDLINMIGYKAK
binding result [10]: binds
